From ChEMBL document CHEMBL3217752, “Small molecules targeting phosphoinositide 3-kinases” (Medchemcomm, 2012)

Assays:
[1] = target: T1, Phosphatidylinositol 4,5-bisphosphate 3-kinase catalytic subunit beta isoform (Homo sapiens, UniProt P42338)
[2] = target: T2, Phosphatidylinositol 4,5-bisphosphate 3-kinase catalytic subunit gamma isoform (Homo sapiens, UniProt P48736)
[3] = target: T3, Phosphatidylinositol 4,5-bisphosphate 3-kinase catalytic subunit alpha isoform (Homo sapiens, UniProt P42336)
[4] = target: T2, Phosphatidylinositol 4,5-bisphosphate 3-kinase catalytic subunit gamma isoform; remark: listed apart in the source
[5] = target: T4, Phosphatidylinositol 4,5-bisphosphate 3-kinase catalytic subunit delta isoform (Homo sapiens, UniProt O00329)
T4 sequence (O00329 whole entry): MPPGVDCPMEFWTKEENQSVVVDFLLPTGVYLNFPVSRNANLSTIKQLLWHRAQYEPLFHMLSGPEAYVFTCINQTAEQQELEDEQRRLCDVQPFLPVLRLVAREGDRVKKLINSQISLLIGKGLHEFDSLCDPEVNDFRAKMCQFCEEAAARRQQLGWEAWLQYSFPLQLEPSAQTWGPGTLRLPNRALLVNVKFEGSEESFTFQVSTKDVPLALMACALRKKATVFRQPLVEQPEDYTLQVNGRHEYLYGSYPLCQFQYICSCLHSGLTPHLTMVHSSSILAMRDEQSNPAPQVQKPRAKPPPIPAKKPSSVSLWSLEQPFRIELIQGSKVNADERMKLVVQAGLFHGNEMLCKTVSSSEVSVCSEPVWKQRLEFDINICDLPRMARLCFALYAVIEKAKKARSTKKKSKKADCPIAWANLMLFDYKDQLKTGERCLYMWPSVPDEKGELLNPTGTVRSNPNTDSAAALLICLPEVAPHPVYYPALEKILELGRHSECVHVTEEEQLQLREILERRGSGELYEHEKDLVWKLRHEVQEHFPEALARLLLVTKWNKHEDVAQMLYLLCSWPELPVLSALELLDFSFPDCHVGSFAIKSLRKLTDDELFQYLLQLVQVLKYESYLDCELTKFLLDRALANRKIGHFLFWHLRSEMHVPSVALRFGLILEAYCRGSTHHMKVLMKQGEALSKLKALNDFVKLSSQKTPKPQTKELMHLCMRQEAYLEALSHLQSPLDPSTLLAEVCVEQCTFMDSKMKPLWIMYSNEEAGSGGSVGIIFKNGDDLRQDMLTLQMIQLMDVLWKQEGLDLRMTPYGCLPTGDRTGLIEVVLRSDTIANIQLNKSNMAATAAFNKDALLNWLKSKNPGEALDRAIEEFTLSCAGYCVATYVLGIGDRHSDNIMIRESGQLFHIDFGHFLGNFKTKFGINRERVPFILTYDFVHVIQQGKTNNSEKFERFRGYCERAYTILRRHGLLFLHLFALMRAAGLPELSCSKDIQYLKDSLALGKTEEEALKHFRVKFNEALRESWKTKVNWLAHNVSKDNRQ

[6] = target: Serine/threonine-protein kinase mTOR (Homo sapiens, UniProt P42345)
[7] = target: DNA-dependent protein kinase catalytic subunit (Homo sapiens, UniProt P78527)
[8] = target: mTORC1 (Homo sapiens, UniProt P42345); type: protein-complex assay
[9] = clinical; settings: human, in vivo
[10] = cells; type: cell-based; settings: Homo sapiens
[11] = target: T3, Phosphatidylinositol 4,5-bisphosphate 3-kinase catalytic subunit alpha isoform; type: cell-based
[12] = target: T1, Phosphatidylinositol 4,5-bisphosphate 3-kinase catalytic subunit beta isoform; type: cell-based

T1 sequence (P42338 whole entry, canonical isoform): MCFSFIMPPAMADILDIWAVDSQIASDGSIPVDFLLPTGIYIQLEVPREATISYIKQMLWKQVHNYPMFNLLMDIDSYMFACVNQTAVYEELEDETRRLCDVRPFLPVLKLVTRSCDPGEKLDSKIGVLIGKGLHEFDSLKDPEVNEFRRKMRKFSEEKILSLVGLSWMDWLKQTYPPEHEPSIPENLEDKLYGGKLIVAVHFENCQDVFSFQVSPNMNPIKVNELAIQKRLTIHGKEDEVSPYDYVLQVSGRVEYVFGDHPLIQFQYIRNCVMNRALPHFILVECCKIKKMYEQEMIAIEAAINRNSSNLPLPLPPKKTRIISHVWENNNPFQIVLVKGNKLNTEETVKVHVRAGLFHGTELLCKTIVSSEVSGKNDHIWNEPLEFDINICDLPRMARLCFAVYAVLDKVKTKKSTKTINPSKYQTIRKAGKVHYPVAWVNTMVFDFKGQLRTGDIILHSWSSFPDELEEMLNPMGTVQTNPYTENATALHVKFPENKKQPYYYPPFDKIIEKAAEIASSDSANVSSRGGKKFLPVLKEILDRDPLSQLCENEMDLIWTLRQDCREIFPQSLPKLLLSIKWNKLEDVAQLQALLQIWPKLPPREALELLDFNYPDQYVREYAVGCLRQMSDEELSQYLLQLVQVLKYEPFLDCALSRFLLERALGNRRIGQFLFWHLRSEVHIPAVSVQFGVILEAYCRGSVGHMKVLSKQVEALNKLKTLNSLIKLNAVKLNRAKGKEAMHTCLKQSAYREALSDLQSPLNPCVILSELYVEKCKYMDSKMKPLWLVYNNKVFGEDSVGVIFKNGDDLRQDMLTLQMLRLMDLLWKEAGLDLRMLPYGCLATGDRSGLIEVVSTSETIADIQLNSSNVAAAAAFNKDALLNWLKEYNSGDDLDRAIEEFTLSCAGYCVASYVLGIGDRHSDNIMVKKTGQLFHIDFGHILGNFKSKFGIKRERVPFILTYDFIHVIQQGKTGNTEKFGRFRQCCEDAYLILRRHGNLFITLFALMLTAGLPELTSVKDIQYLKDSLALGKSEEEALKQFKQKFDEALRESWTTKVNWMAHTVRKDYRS
T2 sequence (P48736 whole entry, canonical isoform): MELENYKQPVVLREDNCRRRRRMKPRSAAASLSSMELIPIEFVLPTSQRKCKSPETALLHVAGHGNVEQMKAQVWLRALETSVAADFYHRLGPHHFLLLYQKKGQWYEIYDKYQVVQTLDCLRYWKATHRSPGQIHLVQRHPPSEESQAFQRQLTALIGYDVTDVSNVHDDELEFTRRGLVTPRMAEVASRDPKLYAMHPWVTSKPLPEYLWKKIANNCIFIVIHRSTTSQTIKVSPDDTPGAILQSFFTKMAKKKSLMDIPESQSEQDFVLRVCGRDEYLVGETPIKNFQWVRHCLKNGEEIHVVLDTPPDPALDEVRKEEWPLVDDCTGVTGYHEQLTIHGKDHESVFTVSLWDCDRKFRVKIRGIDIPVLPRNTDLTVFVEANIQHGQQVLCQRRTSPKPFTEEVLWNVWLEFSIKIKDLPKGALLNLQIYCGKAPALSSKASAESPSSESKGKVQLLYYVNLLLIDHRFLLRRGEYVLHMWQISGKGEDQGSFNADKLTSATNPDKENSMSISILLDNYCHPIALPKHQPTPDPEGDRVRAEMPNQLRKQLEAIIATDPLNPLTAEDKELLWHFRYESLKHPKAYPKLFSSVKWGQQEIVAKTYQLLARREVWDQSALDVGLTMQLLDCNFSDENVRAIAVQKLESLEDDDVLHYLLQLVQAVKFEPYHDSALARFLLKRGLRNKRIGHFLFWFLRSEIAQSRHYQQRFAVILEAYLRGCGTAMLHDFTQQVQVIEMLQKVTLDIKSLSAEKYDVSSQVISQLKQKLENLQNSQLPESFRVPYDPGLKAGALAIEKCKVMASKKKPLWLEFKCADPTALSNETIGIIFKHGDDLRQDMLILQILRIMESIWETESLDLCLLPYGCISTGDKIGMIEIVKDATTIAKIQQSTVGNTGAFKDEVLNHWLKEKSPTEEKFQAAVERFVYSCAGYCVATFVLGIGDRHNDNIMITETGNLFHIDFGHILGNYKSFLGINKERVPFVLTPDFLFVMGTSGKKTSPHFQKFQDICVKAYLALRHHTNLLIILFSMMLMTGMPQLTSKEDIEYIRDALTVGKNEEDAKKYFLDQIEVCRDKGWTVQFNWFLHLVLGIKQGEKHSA
T3 sequence (P42336 whole entry, canonical isoform): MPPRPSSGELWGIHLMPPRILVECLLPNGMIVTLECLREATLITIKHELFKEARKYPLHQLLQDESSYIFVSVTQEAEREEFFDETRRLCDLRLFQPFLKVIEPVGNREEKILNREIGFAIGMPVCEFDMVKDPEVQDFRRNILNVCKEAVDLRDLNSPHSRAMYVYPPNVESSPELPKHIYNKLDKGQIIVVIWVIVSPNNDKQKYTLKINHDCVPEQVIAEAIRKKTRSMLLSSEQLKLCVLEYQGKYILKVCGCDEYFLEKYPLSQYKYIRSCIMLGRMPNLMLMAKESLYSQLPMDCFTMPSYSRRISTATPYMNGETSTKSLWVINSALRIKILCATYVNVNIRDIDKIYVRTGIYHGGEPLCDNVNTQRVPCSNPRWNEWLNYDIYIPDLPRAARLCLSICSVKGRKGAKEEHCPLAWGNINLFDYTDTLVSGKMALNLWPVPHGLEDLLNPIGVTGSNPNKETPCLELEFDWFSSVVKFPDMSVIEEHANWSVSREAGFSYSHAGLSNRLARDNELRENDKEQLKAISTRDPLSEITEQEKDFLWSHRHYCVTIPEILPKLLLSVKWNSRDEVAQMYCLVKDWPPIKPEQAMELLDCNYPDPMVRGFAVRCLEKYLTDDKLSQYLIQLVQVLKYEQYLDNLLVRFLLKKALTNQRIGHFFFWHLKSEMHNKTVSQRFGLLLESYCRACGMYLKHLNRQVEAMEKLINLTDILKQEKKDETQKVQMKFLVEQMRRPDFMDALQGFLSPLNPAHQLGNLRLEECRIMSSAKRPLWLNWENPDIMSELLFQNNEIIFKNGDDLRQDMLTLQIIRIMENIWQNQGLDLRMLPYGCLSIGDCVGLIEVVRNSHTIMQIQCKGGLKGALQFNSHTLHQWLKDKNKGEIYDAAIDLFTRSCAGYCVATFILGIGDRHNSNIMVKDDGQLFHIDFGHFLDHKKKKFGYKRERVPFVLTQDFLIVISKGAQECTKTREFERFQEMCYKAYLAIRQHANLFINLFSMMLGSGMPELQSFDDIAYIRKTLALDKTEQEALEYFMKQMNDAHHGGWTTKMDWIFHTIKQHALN

## O=Cc1ccc(N2CCOCC2)cc1O
[1]
  IC50: 2800 nM

## CN1CCOc2cc(/C=C3\SC(=O)NC3=O)ccc21
[2]
  IC50: > 10000 nM

## Cc1cc(Oc2ccccc2C)c2[nH]c(N3CCOCC3)cc(=O)c2c1
[1]
  IC50: 130 nM

## Cc1cc(NCc2ccccc2C)c2nc(N3CCOCC3)cc(=O)n2c1
[1]
  IC50: 110 nM

## Cc1ccc(S(=O)(=O)Nc2nc3ccccc3nc2Nc2ccc3nsnc3c2)cc1
[1]
  IC50: 383 nM

## N=C(N)NCCCC(NC(=O)CCC(=O)OC[N+]1(c2cc(=O)c3cccc(-c4ccccc4)c3o2)CCOCC1)C(=O)NCC(=O)NC(CC(=O)O)C(=O)NC(CO)C(=O)[O-] (stereo not drawn)
[1]
  IC50: 736 nM
[3]
  IC50: 356 nM
[4]
  IC50: 1770 nM
[5]
  IC50: 3230 nM
[6]
  IC50: 1060 nM
[7]
  IC50: 357 nM

## COc1cc(Nc2nc3ccccc3nc2NS(=O)(=O)c2ccc(NC(=O)c3ccc(C)c(OC)c3)cc2)cc(OC)c1
[7]
  IC50: 150 nM
[8]
  IC50: 190 nM

## COc1ccc(-c2ccc3ncc4c(c3c2)n(-c2ccc(N3CCNCC3)c(C(F)(F)F)c2)c(=O)n4C)cn1 [BGT-226 FREE BASE]
[9]
  half-life: 6 h

## COc1c(OCCCN2CCOCC2)ccc2c1N=C(NC(=O)c1cnc(N)nc1)N1CCN=C21 [COPANLISIB]
[10]
  IC50: < 1 nM

## CC[C@H](Nc1ncnc2[nH]cnc12)c1nc2cccc(F)c2c(=O)n1-c1ccccc1 [IDELALISIB]
[6]
  IC50: > 10000 nM

## Oc1ccc(/C=C/c2cc(O)cc(O)c2)cc1 [RESVERATROL]
[11]
  IC50: 250 nM
[12]
  IC50: 500 nM
